# *1 amine or outer side, *2 acyl side, *3 side chain or, on linkers, in order; H or OH if unused. Where a SMILES comes first, the peptide text is derived from it. Bridges are numbered along the chain shown (N, C = ends). Side-chain parts run from the residue outwards. The star is where a group is joined. C20 diacid = O=C(O)CCCCCCCCCCCCCCCCCCC(=O)*; γGlu = O=C(O)[C@H](CCC(=O)[*:2])N[*:1]; AEEA = NCCOCCOCC(=O)O
# Legend:
# [1] = Assay (V) PK - determination of T½ in mini-pig; assay type: in vivo; details: minipig, sc; terminal plasma half-life, subcutaneous, approx 2 nmol/kg, male Göttingen mini-pigs
# Protocol: Assay (V) PK—Determination OF T½ in Mini-Pig
# T½ is the terminal half-life=ln 2/λz of a compound in plasma. λz is the first order rate constant associated with the terminal (log-linear) portion of the plasma concentration-time curve and is estimated by linear regression of time vs. log concentration.
# T½ values of the amylin analogues of the invention is determined by pharmacokinetic studies in male Göttingen mini-pigs from Ellegaard Göttingen Minipigs ApS and the principles of laboratory animal care are followed.
# An acclimatization period of approximately 6-10 days was allowed before the animals entered the study. At start of the acclimatization period the mini-pigs were about 5 to 12 months old and in the weight range of 7-35 kg. The mini-pigs had two central venous catheters inserted which were used for blood sampling.
# The studies were conducted in an animal room which was illuminated to give a cycle of approx 12 hours light and 12 hours darkness. The animals were housed individually.
# The animals had free access to domestic quality drinking water during the study, but were typically fasted from overnight before dosing until approx 6-12 hours after dosing. The animals were weighed on arrival and on the days of dosing.
# In the present studies the test substances were administered subcutaneously in approx 2 nmol/kg dose. The animals received a single subcutaneous injection. The subcutaneous injection was given on the right side of the neck, approximately 5-7 cm from the ear and 7-9 cm from the middle of the neck. The injections were given with a stopper on the needle, allowing approx 0.5 cm of the needle to be introduced. Each test substance was given to typically three but in some cases two or four animals.
# A full plasma concentration-time profile, employing 12-16 sampling points, was obtained from each animal. In example blood samples were collected according to the following schedule:
# After subcutaneous administration:
# Predose (0), 0.5, 1, 2, 4, 6, 8, 12, 24, 48, 72, 96, 120, 168 and 240 hours after injection. In some cases also additional blood samples up to 288 hours post injection were taken.
# At each sampling time, 0.5 to 2 ml of blood was drawn from each animal. The blood samples were taken via the central venous catheter.
# The blood samples were collected into EDTA test tubes (i.e. Sarstedt Micro tube 1.3 mL K3E). Blood samples were kept on ice for max 20 min. before centrifugation. Plasma was separated using centrifugation (i.e. at 4° C., 10 min., 1500 G) and was immediately transferred to Micronic tubes. Approximately 200 μl plasma was transferred to each Micronic tube. The plasma was stored at −20° C. until assayed. The plasma samples were assayed for the content of amylin using an ELISA assay.
# The plasma concentration-time profiles were analysed by a non-compartmental pharmacokinetic analysis (NCA) using WinNonlin Professional 5.0 (Pharsight Inc., Mountain View, Calif., USA). NCA was performed using the individual plasma concentration-time profiles from each animal. T½ is the terminal half-life=ln 2/λz and was determined from λz, the first order rate constant associated with the terminal (log-linear) portion of the curve, estimated by linear regression of time vs. log concentration.
# ELISA Plasma Assay for Amylin Quantification
# The human amylin ELISA is a monoclonal antibody-based sandwich immunoassay for determining amylin levels in human plasma. The capture antibody recognizes human amylin, amylin acid (deamidated amylin), a 1-20 fragment of amylin, but not reduced amylin.
# The detection antibody binds to reduced or unreduced human amylin but not amylin acid and is complexed with streptavidin-alkaline phosphatase. The substrate, 4-methylumbelliferyl phosphate, is applied to the completed sandwich and the fluorescent signal, monitored at 355 nm/460 nm, is proportional to the amount of amylin present in the sample.
# [2] = target: T1, Amylin 3(a) receptor (human calcitonin receptor (CTa) and RAMP-3) (Homo sapiens, UniProt O60896+P30988); test: Luciferase assay (III), BHK Amylin 3(a)//CRE-luc cells; assay type: cell-based; details: BHK cells with Amylin 3(a) receptor and CRE luciferase reporter, 4 hours incubation; read-out: Potency Luciferase
# T1 construct: expressed in transfected cells; host or cells: BHK570 cells, stably transfected with a CRE-luciferase reporter
# T1 sequence (O60896 24-148): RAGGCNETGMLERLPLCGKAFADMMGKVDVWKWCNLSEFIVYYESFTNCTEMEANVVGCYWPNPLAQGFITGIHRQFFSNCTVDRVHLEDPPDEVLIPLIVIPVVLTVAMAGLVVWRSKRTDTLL
# T1 sequence (P30988 25-474): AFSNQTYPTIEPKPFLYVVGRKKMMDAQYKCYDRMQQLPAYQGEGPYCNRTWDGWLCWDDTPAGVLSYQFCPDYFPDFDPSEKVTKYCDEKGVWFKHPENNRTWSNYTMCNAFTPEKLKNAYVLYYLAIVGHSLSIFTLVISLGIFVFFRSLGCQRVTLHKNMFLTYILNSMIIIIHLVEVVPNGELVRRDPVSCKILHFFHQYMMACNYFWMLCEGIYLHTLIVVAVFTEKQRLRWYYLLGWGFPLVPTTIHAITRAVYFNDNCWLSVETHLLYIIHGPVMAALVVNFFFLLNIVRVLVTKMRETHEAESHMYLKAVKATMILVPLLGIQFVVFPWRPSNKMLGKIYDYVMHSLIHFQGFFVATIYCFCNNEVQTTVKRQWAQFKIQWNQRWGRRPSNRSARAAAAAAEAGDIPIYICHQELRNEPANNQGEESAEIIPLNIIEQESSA
# How it was run: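 Read-out is CRE-driven luciferase luminescence, taken 30 min after LucLite addition at room temperature. Compounds were incubated 4 h at 37° C in assay medium (10% FBS, 10 mM Hepes, pH 7,4). The cell line is BHK570 co-transfected with human calcitonin receptor CTa and RAMP-3, seeded overnight before use.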
half-life [1] [h],EC50 [2] [nM],SMILES
31,0.09,"CC[C@H](C)[C@H](NC(=O)[C@@H]1CCCN1C(=O)CNC(=O)[C@H](Cc1ccccc1)NC(=O)[C@H](CC(N)=O)NC(=O)[C@H](CC(N)=O)NC(=O)[C@H](CO)NC(=O)[C@H](CO)NC(=O)[C@H](Cc1c[nH]cn1)NC(=O)[C@H](Cc1c[nH]cn1)NC(=O)[C@H](CC(C)C)NC(=O)[C@H](Cc1ccccc1)NC(=O)[C@H](CC(N)=O)NC(=O)[C@H](C)NC(=O)[C@H](CC(C)C)NC(=O)[C@H](CCCNC(=N)N)NC(=O)[C@H](CCC(N)=O)NC(=O)[C@@H](NC(=O)[C@H](C)NC(=O)[C@@H]1CSSC[C@H](NC(=O)[C@H](CCCNC(=N)N)NC(=O)[C@H](Cc2c[nH]cn2)NC(=O)[C@H](Cc2c[nH]cn2)NC(=O)COCCOCCNC(=O)CC[C@H](NC(=O)CCCCCCCCCCCCCCCCCCC(=O)O)C(=O)O)C(=O)N[C@@H](CC(N)=O)C(=O)N[C@@H]([C@@H](C)O)C(=O)N[C@@H](C)C(=O)N[C@@H]([C@@H](C)O)C(=O)N1)[C@@H](C)O)C(=O)N[C@@H](CC(C)C)C(=O)N1CCC[C@H]1C(=O)N1CCC[C@H]1C(=O)N[C@H](C(=O)N[C@@H](CC(N)=O)C(=O)N[C@H](C(=O)NCC(=O)N[C@@H](CO)C(=O)N[C@@H](CC(N)=O)C(=O)N[C@H](C(=O)N[C@@H](Cc1ccc(O)cc1)C(N)=O)[C@@H](C)O)C(C)C)[C@@H](C)O [Example 56, N-alpha-[2-(2-{2-[4-(S)-Carboxy-4-(19-carboxynonadecanoylamino)butyrylamino]ethoxy}ethoxy)acetyl]-His-His-[Arg1,His17]-pramlintide] ({C20 diacid-γGlu-AEEA}-HHRCNTATCATQRLANFLHHSSNNFGPILPPTNVGSNTY-NH2; disulfide 4-9)"
66,0.09,"CC[C@H](C)[C@H](NC(=O)[C@@H]1CCCN1C(=O)CNC(=O)[C@H](Cc1ccccc1)NC(=O)[C@H](CC(N)=O)NC(=O)[C@H](CC(N)=O)NC(=O)[C@H](CO)NC(=O)[C@H](CO)NC(=O)[C@H](Cc1c[nH]cn1)NC(=O)[C@H](Cc1c[nH]cn1)NC(=O)[C@H](CC(C)C)NC(=O)[C@H](Cc1ccccc1)NC(=O)[C@H](CC(N)=O)NC(=O)[C@H](C)NC(=O)[C@H](CC(C)C)NC(=O)[C@H](CCCNC(=N)N)NC(=O)[C@H](CCC(N)=O)NC(=O)[C@@H](NC(=O)[C@H](C)NC(=O)[C@@H]1CSSC[C@H](NC(=O)[C@H](Cc2c[nH]cn2)NC(=O)COCCOCCNC(=O)CC[C@H](NC(=O)CCCCCCCCCCCCCCCCCCC(=O)O)C(=O)O)C(=O)N[C@@H](CC(N)=O)C(=O)N[C@@H]([C@@H](C)O)C(=O)N[C@@H](C)C(=O)N[C@@H]([C@@H](C)O)C(=O)N1)[C@@H](C)O)C(=O)N[C@@H](CC(C)C)C(=O)N1CCC[C@H]1C(=O)N1CCC[C@H]1C(=O)N[C@H](C(=O)N[C@@H](CC(N)=O)C(=O)N[C@H](C(=O)NCC(=O)N[C@@H](CO)C(=O)N[C@@H](CC(N)=O)C(=O)N[C@H](C(=O)N[C@@H](Cc1ccc(O)cc1)C(N)=O)[C@@H](C)O)C(C)C)[C@@H](C)O [Example 37, N-alpha-[2-(2-{2-[4-(S)-Carboxy-4-(19-carboxynonadecanoylamino)butyrylamino]ethoxy}ethoxy)acetyl]-[His1,His17]-pramlintide] ({C20 diacid-γGlu-AEEA}-HCNTATCATQRLANFLHHSSNNFGPILPPTNVGSNTY-NH2; disulfide 2-7)"
,0.1,"CC[C@H](C)[C@H](NC(=O)[C@@H]1CCCN1C(=O)CNC(=O)[C@H](Cc1ccccc1)NC(=O)[C@H](CC(N)=O)NC(=O)[C@H](CCC(N)=O)NC(=O)[C@H](CO)NC(=O)[C@H](CO)NC(=O)[C@H](Cc1c[nH]cn1)NC(=O)[C@H](CCCNC(=N)N)NC(=O)[C@H](CC(C)C)NC(=O)[C@H](Cc1ccccc1)NC(=O)[C@H](CC(N)=O)NC(=O)[C@H](C)NC(=O)[C@H](CC(C)C)NC(=O)[C@H](CCCNC(=N)N)NC(=O)[C@H](CCC(N)=O)NC(=O)[C@@H](NC(=O)[C@H](C)NC(=O)[C@@H]1CSSC[C@H](NC(=O)[C@H](CCCNC(=N)N)NC(=O)[C@H](Cc2c[nH]cn2)NC(=O)[C@H](Cc2c[nH]cn2)NC(=O)[C@H](CCC(=O)O)NC(=O)CC[C@H](NC(=O)CCCCCCCCCCCCCCCCCCC(=O)O)C(=O)O)C(=O)N[C@@H](CC(N)=O)C(=O)N[C@@H]([C@@H](C)O)C(=O)N[C@@H](C)C(=O)N[C@@H]([C@@H](C)O)C(=O)N1)[C@@H](C)O)C(=O)N[C@@H](CC(C)C)C(=O)N1CCC[C@H]1C(=O)N1CCC[C@H]1C(=O)N[C@H](C(=O)N[C@@H](CC(N)=O)C(=O)N[C@H](C(=O)NCC(=O)N[C@@H](CO)C(=O)N[C@@H](CC(N)=O)C(=O)N[C@H](C(=O)N[C@@H](Cc1ccc(O)cc1)C(N)=O)[C@@H](C)O)C(C)C)[C@@H](C)O [Example 68, N-alpha-[(S)-4-Carboxy-4-(19-carboxynonadecanoylamino)butyryl]-Glu-His-His-[Arg1,Arg17,Gln21]-pramlintide] ({C20 diacid-γGlu}-EHHRCNTATCATQRLANFLRHSSQNFGPILPPTNVGSNTY-NH2; disulfide 5-10)"
,2,"CC[C@H](C)[C@H](NC(=O)[C@@H]1CCCN1C(=O)CNC(=O)[C@H](Cc1ccccc1)NC(=O)[C@H](CC(N)=O)NC(=O)[C@H](CC(=O)O)NC(=O)[C@H](CO)NC(=O)[C@H](CO)NC(=O)[C@H](Cc1c[nH]cn1)NC(=O)[C@H](Cc1c[nH]cn1)NC(=O)[C@H](CC(C)C)NC(=O)[C@H](Cc1ccccc1)NC(=O)[C@H](CC(N)=O)NC(=O)[C@H](C)NC(=O)[C@H](CC(C)C)NC(=O)[C@H](CCCNC(=N)N)NC(=O)[C@H](CCC(N)=O)NC(=O)[C@@H](NC(=O)[C@H](C)NC(=O)[C@@H]1CSSC[C@H](NC(=O)[C@@H](N)CCCCN)C(=O)N[C@@H](CCCCNC(=O)[C@H](CCC(=O)O)NC(=O)[C@H](CCC(=O)O)NC(=O)[C@H](CCC(=O)O)NC(=O)[C@H](CCC(=O)O)NC(=O)CCCCCCCCCCCCCCCCCCC(=O)O)C(=O)N[C@@H]([C@@H](C)O)C(=O)N[C@@H](C)C(=O)N[C@@H]([C@@H](C)O)C(=O)N1)[C@@H](C)O)C(=O)N[C@@H](CC(C)C)C(=O)N1CCC[C@H]1C(=O)N1CCC[C@H]1C(=O)N[C@H](C(=O)N[C@@H](CC(N)=O)C(=O)N[C@H](C(=O)NCC(=O)N[C@@H](CO)C(=O)N[C@@H](CC(N)=O)C(=O)N[C@H](C(=O)N[C@@H](Cc1ccc(O)cc1)C(N)=O)[C@@H](C)O)C(C)C)[C@@H](C)O [Example 4, N-epsilon3-(19-carboxynonadecanoyl-Glu-Glu-Glu-Glu)-[Lys3,His17,Asp21]-pramlintide] (H-KCK([Glu-Glu-Glu-Glu-C20 diacid])TATCATQRLANFLHHSSDNFGPILPPTNVGSNTY-NH2; disulfide 2-7)"

# — patent publication US8895504B2, “Amylin derivatives” (priority 2008, dated 2014)
